US20210317092A1 (BAYER PHARMA AKTIENGESELLSCHAFT, priority 2016, published 2021)

Target: T1, human Bradykinin B1 receptor (Homo sapiens, UniProt P46663)
T1 construct: host or cells: CHO-K1
T1 sequence (P46663 1-353): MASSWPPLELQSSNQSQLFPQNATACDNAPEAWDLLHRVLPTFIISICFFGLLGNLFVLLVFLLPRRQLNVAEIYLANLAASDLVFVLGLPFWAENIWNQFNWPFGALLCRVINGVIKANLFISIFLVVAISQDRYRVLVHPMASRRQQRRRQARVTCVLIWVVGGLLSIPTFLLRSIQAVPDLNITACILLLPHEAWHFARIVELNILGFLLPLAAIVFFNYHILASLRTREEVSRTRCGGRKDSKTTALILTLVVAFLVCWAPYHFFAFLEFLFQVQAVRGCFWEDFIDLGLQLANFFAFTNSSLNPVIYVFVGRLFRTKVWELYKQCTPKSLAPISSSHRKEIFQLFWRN
Assay: Calcium flux Assay (FLIPR) with recombinant CHO-K1 cells expressing human Bradykinin B1 receptor, in presence (hB1 IC50) or absence (hB1 free IC50) of 0.1% BSA
Format: cell-based
Details: in absence of 0.1% BSA, read-out: hB1 free IC50

| Structure (SMILES) | IC50 [nM] |
| --- | --- |
| O=C(Nc1ccc(-c2ccc(C(F)F)nc2)c(-c2nnn[nH]2)c1)C1(c2ccc(F)cc2)CC1 [Example 268, N-{4-[6-(difluoromethyl)pyridin-3-yl]-3-(1H-tetrazol-5-yl)phenyl}-1-(4-fluorophenyl)cy-cloproapnecarbox-amide] | 92 |
| O=C(Nc1ccc(-c2ccc(C(F)F)nc2)c(-c2nnn[nH]2)c1)C1(c2ccc(Cl)cc2)CC1 [Example 269, 1-(4-chlorophenyl)-N-{4-[6-(difluoromethyl)pyridin-3-yl]-3-(1H-tetrazol-5-yl)phenyl}cyclopro-panecarboxa-mide] | 13.2 |
| O=C(Nc1ccc(-c2ccc(C(F)F)nc2)c(-c2nnn[nH]2)c1)C1(c2ccc(C(F)(F)F)cc2)CC1 [Example 270, N-{4-[6-(difluoromethyl)pyridin-3-yl]-3-(1H-tetrazol-5-yl)phenyl}-1-[4-(trifluoromethyl)phenyl]cyclopro-panecarboxamide] | 17.4 |
| O=C(Nc1ccc(-c2ccc(C(F)F)nc2)c(-c2nnn[nH]2)c1)C1(c2ccc(OC(F)(F)F)cc2)CC1 [Example 271, N-{4-[6-(difluoromethyl)pyridin-3-yl]-3-(1H-tetrazol-5-yl)phenyl}-1-[4-(trifluoromethoxy)phenyl]cyclo-propanecarboxa-mide] | 6.09 |
| O=C(Nc1ccc(-c2ccc(C(F)F)nc2)c(-c2nnn[nH]2)c1)C1(c2ccc(Cl)c(F)c2)CC1 [Example 272, 1-(4-chloro-3-fluorophenyl)-N-{4-[6-(difluoromethyl)pyridin-3-yl]-3-(1H-tetrazol-5-yl)phenyl}cyclopro-panecarboxa-mide] | 4.72 |
| O=C(Nc1ccc(-c2ccc(C(F)F)nc2)c(-c2nnn[nH]2)c1)C1(c2ccc(F)cc2F)CC1 [Example 273, N-{4-[6-(difluoromethyl)pyridin-3-yl]-3-(1H-tetrazol-5-yl)phenyl}-1-(2,4-difluorophenyl)cy-clopropanecar-boxamide] | 24.9 |
| O=C(Nc1ccc(-c2ccc(C(F)F)nc2)c(-c2nnn[nH]2)c1)C1(c2ccc(Cl)cc2F)CC1 [Example 274, 1-(4-chloro-2-fluorophenyl)-N-{4-[6-(difluoromethyl)pyridin-3-yl]-3-(1H-tetrazol-5-yl)phenyl}cyclopro-panecarboxa-mide] | 6.35 |
| Cc1ccc(C2(C(=O)Nc3ccc(-c4ccc(C(F)F)nc4)c(-c4nnn[nH]4)c3)CC2)c(F)c1 [Example 275, N-{4-[6-(difluoromethyl)pyridin-3-yl]-3-(1H-tetrazol-5-yl)phenyl}-1-(2-fluoro-4-methylphenyl)cy-clopropanecar-boxamide] | 8.48 |
| O=C(Nc1ccc(-c2ccc(C(F)F)nc2)c(-c2nnn[nH]2)c1)C1(c2ccc(OC(F)(F)F)cc2F)CC1 [Example 276, N-{4-[6-(difluoromethyl)pyridin-3-yl]-3-(1H-tetrazol-5-yl)phenyl}-1-[2-fluoro-4-(trifluoromethoxy)phenyl]cyclo-propanecarboxa-mide] | 1.83 |
| CC(F)(F)c1ccc(-c2ccc(NC(=O)C3(c4ccc(C(F)(F)F)cc4)CC3)cc2-c2nnn[nH]2)cn1 [Example 277, N-{4-[6-(1,1-difluoroethyl)py-ridin-3-yl]-3-(1H-tetrazol-5-yl)phenyl}-1-[4-(trifluoromethyl)phenyl]cyclopro-panecarboxamide] | 3.19 |
| CC(F)(F)c1ccc(-c2ccc(NC(=O)C3(c4ccc(OC(F)(F)F)cc4)CC3)cc2-c2nnn[nH]2)cn1 [Example 278, N-{4-[6-(1,1-difluroethyl)py-ridin-3-yl]-3-(1H-tetrazol-5-yl)phenyl}-1-[4-(trifluoromethoxy)phenyl]cyclo-propanecarboxa-mide] | 3.62 |
| Cc1ccc(C2(C(=O)Nc3ccc(-c4ccc(C(C)(F)F)nc4)c(-c4nnn[nH]4)c3)CC2)c(F)c1 [Example 280, N-{4-[6-(1,1-difluoroethyl)py-ridin-3-yl]-3-(1H-tetrazol-5-yl)phenyl}-1-(2-fluoro-4-methylphenyl)cy-clopropanecar-boxamide] | 11.3 |
| CC(F)(F)c1ccc(-c2ccc(NC(=O)C3(c4ccc(OC(F)(F)F)cc4F)CC3)cc2-c2nnn[nH]2)cn1 [Example 282, N-{4-[6-(1,1-difluoroethyl)py-ridin-3-yl]-3-(1H-tetrazol-5-yl)phenyl}-1-[2-fluoro-4-(trifluoromethoxy)phenyl]cyclo-propanecarboxa-mide] | 3.49 |
| CCC(F)(F)c1ccc(-c2ccc(NC(=O)C3(c4cccc(Cl)c4)CC3)cc2-c2nnn[nH]2)cn1 [Example 283, 1-(3-chlorophenyl)-N-{4-[6-(1,1-difluoropropyl)py-ridin-3-yl]-3-(1H-tetrazol-5-yl)phenyl}cyclopro-panecarboxa-mide] | 8.19 |

Next, values leading:

| IC50 [nM] | Structure (SMILES) |
| --- | --- |
| 15.3 | CCC(F)(F)c1ccc(-c2ccc(NC(=O)C3(c4ccc(F)c(F)c4)CC3)cc2-c2nnn[nH]2)cn1 [Example 284, 1-(3,4-difluorophenyl)-N-{4-[6-(1,1-difluoropropyl)py-ridin-3-yl]-3-(1H-tetrazol-5-yl)phenyl}cyclopro-panecarboxa-mide] |
| 15.8 | CCC(F)(F)c1ccc(-c2ccc(NC(=O)C3(c4ccc(C)cc4F)CC3)cc2-c2nnn[nH]2)cn1 [Example 285, N-{4-[6-(1,1-difluoropropyl)py-ridin-3-yl]-3-(1H-tetrazol-5-yl)phenyl}-1-(2-fluoro-4-methylphenyl)cy-clopropanecar-boxamide] |
| 4.34 | CCC(F)(F)c1ccc(-c2ccc(NC(=O)C3(c4ccc(C(F)(F)F)cc4F)CC3)cc2-c2nnn[nH]2)cn1 [Example 286, N-{4-[6-(1,1-difluoropropyl)py-ridin-3-yl]-3-(1H-tetrazol-5-yl)phenyl}-1-[2-fluoro-4-(trifluoromethyl)phenyl]cyclopro-panecarboxamide] |
| 3.93 | CCC(F)(F)c1ccc(-c2ccc(NC(=O)C3(c4ccc(OC(F)(F)F)cc4F)CC3)cc2-c2nnn[nH]2)cn1 [Example 287, N-{4-[6-(1,1-difluoropropyl)py-ridin-3-yl]-3-(1H-tetrazol-5-yl)phenyl}-1-[2-fluoro-4-(trifluoromethoxy)phenyl]cyclo-propanecarboxa-mide] |
| 6.81 | O=C(Nc1ccc(-c2ccc(C(F)(F)F)nc2)c(-c2nnn[nH]2)c1)C1(c2ccc(C(F)(F)F)c(F)c2)CC1 [Example 288, 1-[3-fluoro-4-(trifluoromethyl)phenyl]-N-{3-(1H-tetrazol-5-yl)-4-[6-(trifluoromethyl)pyridin-3-yl]phenyl}cyclopro-panecarboxa-mide] |
| 50.2 | O=C(Nc1ccc(-c2ccc(C(F)(F)F)nc2)c(-c2nnn[nH]2)c1)C1(c2cc(F)cc(C(F)(F)F)c2)CC1 [Example 289, 1-[3-fluoro-5-(trifluoromethyl)phenyl]-N-{3-(1H-tetrazol-5-yl)-4-[6-(trifluoromethyl)pyridin-3-yl]phenyl}cyclopro-panecarboxa-mide] |
| 135 | Cc1cc(Cl)ccc1C1(C(=O)Nc2ccc(-c3ccc(C(F)(F)F)nc3)c(-c3nnn[nH]3)c2)CC1 [Example 290, 1-(4-chloro-2-methylphenyl)-N-{3-(1H-tetrazol-5-yl)-4-[6-(trifluoromethyl)pyridin-3-yl]phenyl}cyclopro-panecarboxa-mide] |
| 7.85 | O=C(Nc1ccc(-c2ccc(C(F)(F)F)nc2)c(-c2nnn[nH]2)c1)C1(c2ccc(C(F)(F)F)cc2Cl)CC1 [Example 292, 1-[2-chloro-4-(trifluoromethyl)phenyl]-N-{3-(1H-tetrazol-5-yl)-4-[6-(trifluoromethyl)pyridin-3-yl]phenyl}cyclopro-panecarboxa-mide] |
| 1730 | O=C(Nc1cnc(-c2cnn(C(F)F)c2)c(-c2nnn[nH]2)c1)C1(c2ccc(C(F)(F)F)cc2F)CC1 [Example 296, N-{6-[1-(difluoromethyl)-1H-pyrazol-4-yl]-5-(1H-tetrazol-5-yl)pyridin-3-yl}-1-[2-fluoro-4-(trifluoromethyl)phenyl]cyclopro-panecarboxamide] |
| 350 | O=C(Nc1ccc(-c2ccc(C(F)(F)F)nc2)c(-c2nnn[nH]2)c1F)C1(c2cccc(Cl)c2)CC1 [Example 297, 1-(3-chlorophenyl)-N-{2-fluoro-3-(1H-tetrazol-5-yl)-4-[6-(trifluoromethyl)pyridin-3-yl]phenyl}cyclopro-panecarboxa-mide] |
| 368 | O=C(Nc1ccc(-c2ccc(C(F)(F)F)nc2)c(-c2nnn[nH]2)c1F)C1(c2ccc(F)c(F)c2)CC1 [Example 298, 1-(3,4-difluorophenyl)-N-{2-fluoro-3-(1H-tetrazol-5-yl)-4-[6-(trifluoromethyl)pyridin-3-yl]phenyl}cyclopro-panecarboxa-mide] |
| 241 | Cc1ccc(C2(C(=O)Nc3ccc(-c4ccc(C(F)(F)F)nc4)c(-c4nnn[nH]4)c3F)CC2)c(F)c1 [Example 299, 1-(2-fluoro-4-methylphenyl)-N-{2-fluoro-3-(1H-tetrazol-5-yl)-4-[6-(trifluoromethyl)pyridin-3-yl]phenyl}cyclopro-panecarboxa-mide] |
| 58.1 | O=C(Nc1ccc(-c2ccc(C(F)(F)F)nc2)c(-c2nnn[nH]2)c1F)C1(c2ccc(C(F)(F)F)cc2F)CC1 [Example 300] |
| 36.1 | O=C(Nc1ccc(-c2ccc(C(F)(F)F)nc2)c(-c2nnn[nH]2)c1F)C1(c2ccc(OC(F)(F)F)cc2F)CC1 [Example 301, N-{2-fluoro-3-(1H-tetrazol-5-yl)-4-[6-(trifluoromethyl)pyridin-3-yl]phenyl}-1-[2-fluoro-4-(trifluoromethoxy)phenyl]cyclo-propanecarboxa-mide] |
| 44 | O=C(Nc1cc(Cl)c(-c2ccc(C(F)(F)F)nc2)c(-c2nnn[nH]2)c1)C1(c2cccc(Cl)c2)CC1 [Example 302, 1-(3-chlorophenyl)-N-{3-chloro-5-(1H-tetrazol-5-yl)-4-[6-(trifluoromethyl)pyridin-3-yl]phenyl}cyclopro-panecarboxa-mide] |
